Measured values reported in ChEMBL document CHEMBL2385060, “A dihydrochalcone and several homoisoflavonoids from Polygonatum odoratum are activators of adenosine monophosphate-activated protein kinase” (Bioorg Med Chem Lett, 2013).
Calls of active or inactive are those of the source. The rule behind the calls is not given here.

What was measured:
Type in all cases: cell-based
[1] = biological target: 5'-AMP-activated protein kinase catalytic subunit alpha-2 (Rattus norvegicus) (UniProt Q09137); assay: Inhibition of AMPK in rat IAR-20 cells assessed as phosphorylated protein level at 10 uM after 30 mins by Western blot analysis
[2] = biological target: 5'-AMP-activated protein kinase catalytic subunit alpha-2 (Rattus norvegicus) (UniProt Q09137); assay: Inhibition of AMPK in rat IAR-20 cells assessed as phosphorylated acetyl CoA carboxylase level at 10 uM after 30 mins by Western blot analysis
[3] = biological target: 5'-AMP-activated protein kinase catalytic subunit alpha-2 (Rattus norvegicus) (UniProt Q09137); assay: Activation of AMPK in rat IAR-20 cells assessed as phosphorylated acetyl CoA carboxylase level at 10 uM after 30 mins by Western blot analysis
[4] = biological target: 5'-AMP-activated protein kinase catalytic subunit alpha-2 (Rattus norvegicus) (UniProt Q09137); assay: Activation of AMPK in rat IAR-20 cells assessed as phosphorylated protein level at 10 uM after 30 mins by Western blot analysis

Sequence of 5'-AMP-activated protein kinase catalytic subunit alpha-2 (Rattus norvegicus) (Q09137 whole entry): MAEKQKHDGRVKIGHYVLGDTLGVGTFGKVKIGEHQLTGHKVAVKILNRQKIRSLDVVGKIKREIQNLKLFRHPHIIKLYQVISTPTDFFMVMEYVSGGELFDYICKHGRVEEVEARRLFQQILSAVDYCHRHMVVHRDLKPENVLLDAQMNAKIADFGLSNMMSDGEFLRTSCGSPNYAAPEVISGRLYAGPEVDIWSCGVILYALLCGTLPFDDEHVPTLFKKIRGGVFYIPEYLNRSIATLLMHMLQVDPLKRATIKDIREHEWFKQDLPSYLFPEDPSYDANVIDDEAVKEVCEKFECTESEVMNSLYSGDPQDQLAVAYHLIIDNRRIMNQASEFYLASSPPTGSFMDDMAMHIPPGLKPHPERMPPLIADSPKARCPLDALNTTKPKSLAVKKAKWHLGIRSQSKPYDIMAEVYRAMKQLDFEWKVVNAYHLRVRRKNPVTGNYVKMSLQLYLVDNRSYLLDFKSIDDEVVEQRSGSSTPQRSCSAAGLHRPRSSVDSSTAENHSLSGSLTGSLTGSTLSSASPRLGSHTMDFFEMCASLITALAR

In the case of COc1ccc(CC2COc3c(OC)c(O)cc(O)c3C2=O)c(O)c1 (centres undefined), the inhibition [1] is reported as “Active” and the inhibition [2] is reported as “Active”.

In the case of COc1cc(O)c(C)c(O)c1C(=O)CCc1ccc(O)cc1, the Activity [3] is reported as “Active” and the Activity [4] is reported as “Active”.

With Cc1c(O)c(C)c2c(c1O)C(=O)[C@](O)(Cc1ccc(O)cc1)CO2 the inhibition [1] was “Active” and the inhibition [2] was “Active”.

In the case of Cc1c(O)cc2c(c1O)C(=O)[C@H](Cc1ccc(O)cc1)CO2, the Activity [3] is reported as “Active” and the Activity [4] is reported as “Active”.

In the case of COc1c(O)c(C)c(O)c2c1OC[C@@](O)(Cc1ccc(O)cc1)C2=O, the inhibition [1] is reported as “Active” and the inhibition [2] is reported as “Active”.

COc1c(O)c(C)c(O)c2c1OC[C@@H](Cc1ccc(O)cc1)C2=O was tested, and the Activity [3] was “Active” and the Activity [4] was “Active”.

With Cc1c(O)c(C)c2c(c1O)C(=O)[C@H](Cc1ccc(O)cc1)CO2 the Activity [3] was “Active” and the Activity [4] was “Active”.
